For the assay, the target named is T1, CDK2 (Homo sapiens, UniProt P24941).
T1 construct: endogenous in cells; host or cells: OVCAR3 cells
Kind of assay: Phospho-RB measurement in OVCAR3 cells (HTRF phospho-RB cellular kit). In kind it is cell-based. The conditions noted are these: inhibition of RB phosphorylation at S807/811 (HTRF, TR-FRET ratio 665/620), 24 h compound treatment, 0.3 to 10,000 nM. The method, boiled down: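 IC50 came from a four-parameter logistic fit of the DMSO-normalized TR-FRET ratio (665/620 nm). That ratio reflects RB phosphorylation at S807/811, read with an HTRF antibody pair 4 h after adding lysate at room temperature.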
As for `O=S1(=O)CC2(CC(Nc3nccc(-c4sc(C56CC(C5)C6)nc4-c4cccc(NS(=O)(=O)N5CCc6cc(Cl)ccc65)c4F)n3)C2)C1` [Example 47, N-(3-(2-(bicyclo [1.1.1]pentan-1-yl)-5-(2-((2,2-dioxido-2-thiaspiro[3.3]heptan-6-yl)amino)-pyrimidin-4-yl)thiazol-4-yl)-2-fluorophenyl)-5-chloroindoline-1-sulfonamide], the IC50 (commonly the concentration needed to halve the response being measured) worked out at 343 nM. In the case of `CC(C)(C)c1nc(-c2cccc(NS(=O)(=O)N3Cc4ccc(C(F)F)cc4C3)c2F)c(-c2ccnc(NC3CC4(C3)CS(=O)(=O)C4)n2)s1` [Example 255, N-(3-(2-(tert-butyl)-5-(2-((2,2-dioxido-2-thiaspiro[3.3]heptan-6-yl)amino)-pyrimidin-4-yl)thiazol-4-yl)-2-fluoro-phenyl)-5-(difluoromethyl) isoindoline-2-sulfonamide] it was 683 nM; in that of `COc1ccc2c(c1)N(S(=O)(=O)Nc1cccc(-c3nc(C45CC(C4)C5)sc3-c3ccnc(NC4CC5(C4)CS(=O)(=O)C5)n3)c1F)CC2` [Example 20, N-(3-(2-(bicyclo [1.1.1]pentan-1-yl)-5-(2-((2,2-dioxido-2-thiaspiro[3.3]heptan-6-yl)amino)-pyrimidin-4-yl)thiazol-4-yl)-2-fluorophenyl)-6-methoxyindoline-1-sulfonamide], 208 nM; in that of `CN(C)Cc1ccc2c(c1)CN(S(=O)(=O)Nc1cccc(-c3nc(C(C)(C)C)sc3-c3ccnc(NC4CCN(S(C)(=O)=O)CC4)n3)c1F)C2` [Example 171, N-(3-(2-(tert-butyl)-5-(2-((1-(methylsulfonyl)-piperidin-4-yl)amino)-pyrimidin-4-yl)thiazol-4-yl)-2-fluoro-phenyl)-5-((dimethylamino)methyl)-isoindoline-2-sulfonamide], 2120 nM. Under `CC(C)(C)c1nc(-c2cccc(NS(=O)(=O)N3CCC4(CC4)C3)c2F)c(-c2ccnc(NC3CC4(C3)CS(=O)(=O)C4)n2)s1` [Example 180, N-(3-(2-(tert-butyl)-5-(2-((2,2-dioxido-2-thiaspiro[3.3]heptan-6-yl)amino)-pyrimidin-4-yl)thiazol-4-yl)-2-fluoro-phenyl)-5-azaspiro[2.4] heptane-5-sulfonamide] stands 2820 nM; under `N#Cc1ccc2c(c1)N(S(=O)(=O)Nc1cccc(-c3nc(C45CC(C4)C5)sc3-c3ccnc(NC4CCN(S(=O)(=O)N5CCNCC5)CC4)n3)c1F)CC2` [Example 263, N-(3-(2-(bicyclo [1.1.1]pentan-1-yl)-5-(2-((1-(piperazin-1-ylsulfonyl)piperidin-4-yl)amino)-pyrimidin-4-yl)thiazol-4-yl)-2-fluorophenyl)-6-cyanoindoline-1-sulfonamide], 118 nM. Under `CC(C)c1nc(-c2cccc(NS(=O)(=O)N3CCc4ccccc43)c2F)c(-c2ccnc(NC3CCN(S(=O)(=O)N4CCNCC4)CC3)n2)s1` [Example 178, N-(2-fluoro-3-(2-isopropyl-5-(2-((1-(piperazin-1-ylsulfonyl)piperidin-4-yl)amino)pyrimidin-4-yl)thiazol-4-yl)phenyl)indoline-1-sulfonamide] stands 203 nM. As for `O=S1(=O)CC2(CC(Nc3nccc(-c4sc(N5C6CCC5CN(CC(F)(F)F)C6)nc4-c4cccc(NS(=O)(=O)N5Cc6cccc(C(F)F)c6C5)c4F)n3)C2)C1` [Example 49], the IC50 was 137 nM. In the case of `Cn1c(-c2ccc3c(c2)N(S(=O)(=O)Nc2cccc(-c4nc(C(C)(C)C)sc4-c4ccnc(NC5CC6(C5)CS(=O)(=O)C6)n4)c2F)CC3)cccc1=O` [Example 220, N-(3-(2-(tert-butyl)-5-(2-((2,2-dioxido-2-thiaspiro[3.3]heptan-6-yl)amino)-pyrimidin-4-yl)thiazol-4-yl)-2-fluoro-phenyl)-6-(1-methyl-6-oxo-1,6-dihydropyridin-2-yl)indoline-1-sulfonamide], the IC50 worked out at 802 nM. Under `C[C@H]1c2ccccc2CN1S(=O)(=O)Nc1cccc(-c2nc(C(C)(C)C)sc2-c2ccnc(NC3CCN(S(C)(=O)=O)CC3)n2)c1F` [Example 131, (S)-N-(3-(2-(tert-butyl)-5-(2-((1-(methyl-sulfonyl)piperidin-4-yl)amino)pyrimidin-4-yl)thiazol-4-yl)-2-fluoro-phenyl)-1-methyliso-indoline-2-sulfonamide] stands 160 nM; under `CC1(c2nc(-c3cccc(NS(=O)(=O)N4CCc5ccc(C#N)cc54)c3F)c(-c3ccnc(Nc4ccc(N5CCNCC5)cc4)n3)s2)CCOCC1` [Example 236, 6-cyano-N-(2-fluoro-3-(2-(4-methyltetrahydro-2H-pyran-4-yl)-5-(2-((4-(piperazin-1-yl)-phenyl)amino)-pyrimidin-4-yl)thiazol-4-yl)-phenyl)indoline-1-sulfonamide], 477 nM; under `O=S1(=O)CC2(CC(Nc3nccc(-c4sc(N5C6CCC5CN(CC(F)(F)F)C6)nc4-c4cccc(NS(=O)(=O)N5Cc6cccc(OC(F)F)c6C5)c4F)n3)C2)C1` [Example 33, 4-(difluoromethoxy)-N-(3-(5-(2-((2,2-dioxido-2-thiaspiro [3.3]heptan-6-yl)amino)pyrimidin-4-yl)-2-(3-(2,2,2-trifluoroethyl)-3,8-diazabicyclo-[3.2.1]octan-8-yl)thiazol-4-yl)-2-fluorophenyl) isoindoline-2-sulfonamide], 153 nM. Under `O=S1(=O)CC2(CC(Nc3nccc(-c4sc(C56CC(C5)C6)nc4-c4cccc(NS(=O)(=O)N5CCc6c5ccc(F)c6F)c4F)n3)C2)C1` [Example 45, N-(3-(2-(bicyclo [1.1.1]pentan-1-yl)-5-(2-((2,2-dioxido-2-thiaspiro[3.3]heptan-6-yl)amino)-pyrimidin-4-yl)thiazol-4-yl)-2-fluorophenyl)-4,5-difluoroindoline-1-sulfonamide] stands 314 nM. Under `CC(C)(C)c1nc(-c2cccc(NS(=O)(=O)N3Cc4ccccc4C3Cc3ccccc3)c2F)c(-c2ccnc(NC3CCN(S(C)(=O)=O)CC3)n2)s1` (stereo not shown) [Example 213, 1-benzyl-N-(3-(2-(tert-butyl)-5-(2-((1-(methylsulfonyl)piperidin-4-yl)amino)-pyrimidin-4-yl)thiazol-4-yl)-2-fluoro-phenyl)-isoindoline-2-sulfonamide] stands 3300 nM; under `CC(C)(C)c1nc(-c2cccc(NS(=O)(=O)N3CCCCc4ccccc43)c2F)c(-c2ccnc(NC3CCN(S(C)(=O)=O)CC3)n2)s1` [Example 82, N-(3-(2-(tert-butyl)-5-(2-((1-(methylsulfonyl)piperidin-4-yl)amino)-pyrimidin-4-yl)thiazol-4-yl)-2-fluorophenyl)-2,3,4,5-tetrahydro-1H-benzo[b]azepine-1-sulfonamide], 850 nM.

In the case of `CS(=O)(=O)[C@H]1CC[C@H](Nc2nccc(-c3sc(C45CC(C(F)(F)F)(C4)C5)nc3-c3cccc(NS(=O)(=O)N4Cc5ccccc5C4)c3F)n2)CC1` [Example 57, N-(2-fluoro-3-(5-(2-(((1r,4r)-4-(methylsulfonyl)cyclohexyl)amino)-pyrimidin-4-yl)-2-(3-(trifluoromethyl)-bicyclo[1.1.1]-pentan-1-yl)thiazol-4-yl)phenyl) isoindoline-2-sulfonamide], the IC50 came out at 494 nM. In the case of `CC(C)(C)c1nc(-c2cccc(NS(=O)(=O)N3CCc4ccccc4C3)c2F)c(-c2ccnc(NC3CCN(S(C)(=O)=O)CC3)n2)s1` [Example 74, N-(3-(2-(tert-butyl)-5-(2-((1-(methylsulfonyl)-piperidin-4-yl)amino)-pyrimidin-4-yl)thiazol-4-yl)-2-fluoro-phenyl)-3,4-dihydro-isoquinoline-2(1H)-sulfonamide] it was 180 nM; in that of `CNS(=O)(=O)N1CCC(Nc2nccc(-c3sc(C(C)(C)C)nc3-c3cccc(NS(=O)(=O)N4Cc5ccccc5C4)c3F)n2)CC1` [Example 75, N-(3-(2-(tert-butyl)-5-(2-((1-(N-methylsulfamoyl)piperidin-4-yl)amino)-pyrimidin-4-yl)thiazol-4-yl)-2-fluoro-phenyl)-isoindoline-2-sulfonamide], 65 nM; in that of `COc1cccc2c1CN(S(=O)(=O)Nc1cccc(-c3nc(C4(C)CCOCC4)sc3-c3ccnc(N[C@H]4[C@@H]5CS(=O)(=O)C[C@@H]54)n3)c1F)C2` [Example 7, N-(3-(5-(2-(((1R, 5S,6r)-3,3-dioxido-3-thiabicyclo[3.1.0]hexan-6-yl)amino)-pyrimidin-4-yl)-2-(4-methyltetrahydro-2H-pyran-4-yl)thiazol-4-yl)-2-fluorophenyl)-4-methoxyisoindoline-2-sulfonamide], 9.2 nM.

With `CN(C)CCN(C)S(=O)(=O)N1CCC(Nc2nccc(-c3sc(C(C)(C)C)nc3-c3cccc(NS(=O)(=O)N(C)C)c3F)n2)CC1` [Example 135, 4-((4-(2-(tert-butyl)-4-(3-((N,N-dimethyl-sulfamoyl)amino)-2-fluoro-phenyl)thiazol-5-yl)pyrimidin-2-yl)amino)-N-(2-(dimethyl-amino)ethyl)-N-methylpiperidine-1-sulfonamide], the IC50 is 474 nM. Turning to `CNC(=O)c1ccc2c(c1)N(S(=O)(=O)Nc1cccc(-c3nc(C(C)(C)C)sc3-c3ccnc(NC4CC5(C4)CS(=O)(=O)C5)n3)c1F)CC2` [Example 203, 1-(N-(3-(2-(tert-butyl)-5-(2-((2,2-dioxido-2-thiaspiro[3.3]heptan-6-yl)amino)pyrimidin-4-yl)thiazol-4-yl)-2-fluorophenyl)sulfamoyl)-N-methyl-indoline-6-carboxamide], the IC50 stood at 931 nM. Under `CC(C)(C)c1nc(-c2cccc(NS(=O)(=O)N3CCc4ccc(-c5ccccc5)cc43)c2F)c(-c2ccnc(NC3CC4(C3)CS(=O)(=O)C4)n2)s1` [Example 217, N-(3-(2-(tert-butyl)-5-(2-((2,2-dioxido-2-thiaspiro[3.3]heptan-6-yl)amino)-pyrimidin-4-yl)thiazol-4-yl)-2-fluoro-phenyl)-6-phenyl-indoline-1-sulfonamide] stands 934 nM.

The values above are taken from patent US20260274833A1 (NiKang Therapeutics, Inc., priority 2022, published 2026).
